From the NIST ThermoML archive (doi:10.1021/acs.jced.9b00794)
± gives the expanded uncertainty stated by the source.

Settings: 100 kPa, Liquid, Vibrating tube method

Row | mass density (288.15 K) | mass density (298.15 K) | mass density (308.15 K) | mass density (318.15 K) | mass density (328.15 K) | Compound
1 | 1137.91 ± 0.11 kg/m3 | 1129.49 ± 0.11 kg/m3 | 1121.04 ± 0.11 kg/m3 | 1112.55 ± 0.1 kg/m3 | 1104.04 ± 0.1 kg/m3 | NC=O [formamide]
2 | – | – | – | – | 985.69 ± 0.05 kg/m3 | O [water]
